Seven molecules from patent EP1095657A2, “Compositions for the regulation of cytokine activity” (priority 1992, dated 1994) can be followed below.

Test [1] relates to adjuvant arthritis in Lewis rats. The test is described as follows: Adjuvant arthritis (AA) in rats. In kind it is in vivo.
Test [2] relates to experimental DTH reaction in mice. The test is described as follows: In vivo bioassay of inhibition of experimental DTH reactivity (oxazolone ear swelling). Also noted: species or system mice (BALB/c or CD1). Particulars: for DTH: at that dose, value in parentheses in the cell taken as positive control, not reported; for DTH Response: at the dose giving Inhmax. The method, then: Groups of inbred BALB/c (Jackson Laboratories, Bar Harbor, ME) or of outbred CD1 (Weizmann Institute Animal Breeding Center, Rehovot, Israel) mice are sensitized on the shaved abdominal skin with 100 µl of 2% oxazolone (OX) in acetone/olive oil (4/1, v/v) applied topically. DTH sensitivity is elicited 5 days later as follows: mice are challenged with 20 µl of 0.5% OX (10 µl administered topically to each side of the ear) in acetone/olive oil. A constant area of the ear is measured immediately before challenge and 24 and 48 h later with a Mitutoyo engineer's micrometer. The individual measuring ear swelling is blinded to the identity of the groups of mice. The increment (△) of ear swelling is expressed as the mean in units of 10^-2 mm or 10^-4 inch (+SE) depending on the micrometer that is used. Percent inhibition is calculated as follows: %Inhibition= 1-((Treated-negative control)/(positive control-negative control)) [formula]
Mice are treated with LMWH as in Example 5.1, injected the day before primary sensitization to OX. On the fifth day after sensitization to OX, the mice are challenged to induce a DTH reaction, as described above.
The positive control is the DTH reaction elicited in immunized mice in the absence of treatment with LMWH. The negative control is the background swelling produced by the antigen in naive (non-immunized) mice.
BALB/c mice (at least 5 mice per group) were sensitized on the shaved abdomen with 3% 4-ethoxymethylene-2-phenyl oxazolone (OX; BDH Chemicals, GB) in acetone/olive oil applied topically. DTH sensitivity was elicited 5 days later as follows. Mice were challenged with 0.5% OX in acetone/olive oil. The ear was measured immediately before challenge and 24 h later with Mitutoyo engineer's micrometer (Japan). The individual measuring the swelling of the ear was blinded to the identity of the groups of mice. To interfere with DTH response, the low molecular weight immuno-regulatory fractions, diluted in PBS, were administrated subcutaneously into the back of the treated mice at the indicated time schedules and concentrations. Treated mice were inspected during and after (>2 months) the treatment and no major side-effects were observed clinically.
In particular, CD1 mice (available from the Weizmann Institute Animal Breeding Center, Rehovot, Israel), 4-12 mice per group, were treated as described in Section 5.2 or 6.8.

Test [3] relates to mortality after gamma irradiation. Kind of test: Radioprotective effect in gamma-irradiated mice. In kind it is in vivo, BALB/c mice. The method, then:
Groups of female BALB/c mice, 8 weeks old, 5-10 mice per group, were injected subcutaneously with either saline (0.1 ml, control), H-9392 (30 ng/mouse), or glucosamine (10,000 ng/mouse) 1 day before irradiation, and weekly thereafter until termination of the experiment on day 30. All the mice were irradiated to a dose of 700 rads using a ^60Co gamma radiation source.
In a separate experiment, groups of BALB/c mice (5 mice to a group) were likewise exposed to 750 rads of gamma-rays, except that these groups of mice were treated with test substances (saline at 0.1 ml per mouse; H-9392 at 0.3, 3, 30 and 300 ng/mouse; and glucosamine at 1, 10 and 100 µg/mouse) on the day before irradiation, on the sixth day after irradiation, and once again on the thirteenth day after irradiation only. All treatment ceased after the third and last administration.

In a further test the test system is IDDM of NOD mice. Kind of test: Insulin dependent diabetes mellitus (IDDM) of NOD mice. In kind it is in vivo.
The test system of test [4] is secretion of active TNF-α by activated human CD4+ T cells. The test is described as follows: Bioassay of TNF-α activity using human CD4+ T cells derived from PBLs (human PBL bioassay). Particulars: for Bioassay of TNF Activity, in words: conc range of 1 µg/ml - 0.01 pg/ml, inconsistent = not the same result in all three bioassays.
In test [5] the test system is LPS-induced inflammation of the cornea. Kind of test: LPS-induced inflammation of the rat cornea. In kind it is in vivo, Lewis rats. The method, then:
LPS-induced inflammation of the cornea is TNF dependent, as shown by the work of Vanderhagen, C. and co-workers in the Netherlands, "Kinetics of Intraocular TNF and IL-6 in Endotoxin-Induced Uveitis in the Rat," submitted for publication. Using a 30-gauge needle, LPS (5 ng) was injected into the cornea of Lewis rats. After one day, separate groups of rats, 2 to a group (or 4 eyes to a group), were then injected subcutaneously with phosphate-buffered saline (0.05 ml) or H-1020 (at a dose of either 50 ng/rat or 200 ng/rat). The effects, if any, were scored as follows:
in which the sum of the points is used as the total score.

The test system of test [6] is experimental DTH reaction in mice. Kind of test: In vivo bioassay of inhibition of experimental DTH reactivity (oxazolone ear swelling). As to conditions: inhibitory; administered orally. Further details: species or system mice (BALB/c or CD1).
Another test deals with ICAM-1. Kind of test: TNF-α-induced expression of adhesion molecules by endothelial cells (ELISA). As to conditions: 1 h pretreatment of EC, TNFα alone 2.2±0.2.
For another test, the system named is ELAM-1. The description is as above. As to conditions: for Recombinant human TNFα-induced adhesion molecules (O.D 492): 1 h pretreatment of EC, TNFα alone 1.2±0.1.
Where [7] appears, read: CD1 mice, s.c., dose giving Inhmax in the higher effective dose range.
Setting [8] is: CD1 mice, s.c., higher effective dose range.
Setting [9] is: CD1 mice, s.c., inhibitory, 0 = no effect.
[10] abbreviates: dose giving Inhmax, subcutaneous.
[11] abbreviates: inhibitory, maximum % inhibition of DTH divided by the dose giving it, s.c., 0 = no effect.
Where [12] appears, read: maximum inhibition of DTH, subcutaneous.

SMILES strings stand for the structures. Marks after values point to notes of the source that are not given here.

Take `N[C@H]1C(O)O[C@H](CO)[C@H](O)[C@@H]1O` (stereo partly drawn) [GalN, D-Galactosamine]: the “effect on AA, in words” value in test [1] (s.c. weekly, different dosages (FIG. 38C)) is reported as “inhibitory effects but to a much lesser degree than that shown by glucosamine”. Also, the Inhmax in test [2] (CD1 mice, s.c.) was 50%; in [2] (setting [8]) it was 67%. Also, the Dose in test [2] (setting [7]) is reported as 0.12 µg/gm. Besides, the “"R" value” in [2] (setting [8]) is listed as 5.58 x 10^2 % x (µg/gm)^-1; in test [2] (setting [9]) it was 1.25 x 10^6 % x (μg/gm)^-1.
In [3] (700 rads, by day 30, s.c. 1 day before irradiation and weekly, H-9392 30 ng/mouse, glucosamine 10,000 ng/mouse, saline 100%), `N[C@H]1C(O)O[C@H](CO)[C@@H](O)[C@@H]1O` (stereo partly drawn) [GlcN, 2-amino-2-deoxy-D-glucose] had a mortality rate of 20%. Besides, the “activity in suppressing mortality after irradiation, in words” value in test [3] (750 rads, three administrations, 300 ng H-9392, 1 µg glucosamine) is on record as “moderate activity in suppressing mortality”. Moreover, the “inhibition of the development of AA, of control levels” value in test [1] (s.c. weekly, three dosage levels) is reported as 60-80%. The “mice that had become diabetic” value with IDDM of NOD mice (at 4.5 months, H-9392 30 ng/mouse, glucosamine 10,000 ng/mouse s.c., all control mice diabetic) is given as “about 65%”. Besides, the “mice that had died, in words” value in the test on IDDM of NOD mice (by age 5 months, H-9392 30 ng, glucosamine 10,000 ng, all control mice had died) is “about half”. Besides, the Inhmax in test [2] (CD1 mice, s.c.) turned out to be 75%; in test [2] (setting [8]), 88%. Moreover, the Dose in test [2] (setting [7]) is 0.4 µg/gm. Besides, the “"R" value” is given as 2.2 x 10^2 % x (µg/gm)^-1 in test [2] (setting [8]) and 6.25 x 10^6 % x (μg/gm)^-1 in [2] (setting [9]).
On to `CC(=O)N[C@H]1C(O)O[C@H](CO)[C@@H](O[C@@H]2OC(C(=O)O)=C[C@H](O)[C@H]2O)[C@@H]1O` (stereo partly drawn) [H-0895, 4-deoxy-4-en-iduronic acid-(α-1,4)-2-deoxy-2-N-acetylglucosamine], for which the “AA score against control, in words” value in test [1] (0.1 and 0.4 ng/rat s.c. weekly, day 24) is given as “not substantially different from control levels”. In test [1] (0.1 and 0.4 ng/rat s.c. weekly, within about 2 weeks of induction), the “effect on AA, in words” value was “increased level of AA development”. Also, the “Bioassay of TNF Activity, in words” value in [4] is recorded as “Inconsistent”. Further, in test [2] (CD1 mice, s.c.), the “Inhmax column, value printed with +: augmentation of the DTH swelling” value is on record as “+92%”; the “dose giving the augmenting effect on swelling” value was “about 1.2 picograms disaccharide per gram mouse”; the DTH is on record as 37.3 ± 0.7 (18.9 ± 0.7) 10^-2 mm.
Take `O=C(O)C1=C[C@H](O)[C@@H](O)[C@H](O[C@H]2[C@H](O)[C@@H](NS(=O)(=O)O)C(O)O[C@@H]2COS(=O)(=O)O)O1` (stereo partly drawn) [H-1020, 4-deoxy-4-en-iduronic acid-(α-1,4)-2-deoxy-2-N-sulfate-6-O-sulfateglucosamine]: the “effect on the LPS-induced inflammation score, in words” value in test [5] (50 ng/rat s.c. one day after LPS) is reported as “effective to suppress the effects of the local LPS-induced inflammation”; in test [5] (200 ng/rat s.c. one day after LPS), “failed to provide a significant effect”. In [1] (s.c. weekly from 1 day before induction, day 24, dose not given), the “inhibition of the development of AA relative to control” value is “about 30%”. The molecule further returned a conc in test [4] (concentration that gave the Inhmax or Augmax of the same line) of 1 pg/mL. Also, the “"R" value” in test [6] is recorded as 531 % x (µg/gm)^-1; in test [2] (setting [9]), 1.65 x 10^5 % x (μg/gm)^-1; in [2] (setting [11]) it was 146,000 % x (µg/gm)^-1. The “Recombinant human TNFα-induced adhesion molecules (O.D 492)” value in the test with ICAM-1 (50 pg/ml, no TNFα 0.18±0.01) came out at 1.2±0.1 O.D 492; in the test on ICAM-1 (100 pg/ml) it was 1.5±0.07 O.D 492; in the test on ELAM-1 (50 pg/ml, no TNFα 0.12±0.01), 0.7±0.05 O.D 492; with ELAM-1 (100 pg/ml), 0.9±0.03 O.D 492. The Inhmax in test [2] (CD1 mice, s.c.) was 66%; in [2] (maximum inhibition of DTH, administered orally) it was 68%; in test [2] (setting [12]) it was 73%. The DTH in test [2] (CD1 mice, s.c.) is 6.7 ± 1.1 (19.6 ± 1.2) 10^-2 mm. For the same molecule, the “DTH Response” value in [2] (administered orally) was 5.9 ± 0.9 10^-2mm; in test [2] (subcutaneous) it was 4.7 ± 0.7 10^-2mm. The Dose is listed as 0.128^a µg/gm mouse in [2] (dose giving Inhmax, administered orally) and 0.0005 µg/gm mouse in test [2] (setting [10]). In addition, the “inhibition of the up regulation of EC expression of adhesion molecules induced by TNF-α” value in the test with ELAM-1 (ELAM-1 and ICAM-1 not told apart in the sentence) is “up to 50%”.
For the molecule `O=C(O)C1=C[C@H](O)[C@@H](OS(=O)(=O)O)[C@H](O[C@H]2[C@H](O)[C@@H](NS(=O)(=O)O)C(O)O[C@@H]2COS(=O)(=O)O)O1` (stereo partly drawn) [H-9267, 2-O-sulfate-4-deoxy-4-en-iduronic acid-(α-1,4)-2-deoxy-2-N-sulfate-6-O-sulfateglucosamine], the “Bioassay of TNF Activity, in words” value in test [4] is on record as “Inconsistent”. Besides, the Inhmax in test [2] (CD1 mice, s.c.) amounted to 64%; in [2] (setting [12]) it was 80%. Also, the DTH in test [2] (CD1 mice, s.c.) is reported as 7.2 ± 1 (19.6 ± 1.2) 10^-2 mm. The “"R" value” is reported as 1.60 x 10^5 % x (μg/gm)^-1 in test [2] (setting [9]) and 160,000 % x (µg/gm)^-1 in [2] (setting [11]). The “DTH Response” value in [2] (subcutaneous) is given as 3.5 ± 1 10^-2mm. The Dose in test [2] (setting [10]) turned out to be 0.0005 µg/gm mouse.
For `CC(=O)N[C@H]1C(O)O[C@H](COS(=O)(=O)O)[C@@H](O[C@@H]2OC(C(=O)O)=C[C@H](O)[C@H]2OS(=O)(=O)O)[C@@H]1O` (stereo partly drawn) [H-9517, 2-O-sulfate-4-deoxy-4-en-iduronic acid-(α-1,4)-2-deoxy-2-N-acetyl-6-O-sulfateglucosamine], in test [4], the “Bioassay of TNF Activity, in words” value is “Inconsistent^c”. Moreover, in test [2] (CD1 mice, s.c.), the Inhmax came to 62% and the DTH is 7.6 ± 1 (20.4 ± 0.7) 10^-2 mm. For the same molecule, the “"R" value” in test [2] (setting [9]) is on record as 1.55 x 10^6 % x (μg/gm)^-1.
In the case of `C[C@@H]1C[C@H]2[C@@H]3CCC4=CC(=O)C=C[C@]4(C)[C@@]3(F)[C@@H](O)C[C@]2(C)[C@@]1(O)C(=O)COP(=O)(O)O` [dexamethasone phosphate], the “course of AA after treatment has ended, in words” value in test [1] (100 µg per rat s.c. daily from day 12) was “suffered a relapse”. Besides, the “effect on AA at 30 days post-induction, in words” value in test [1] (weekly s.c. from day 12 to day 26, 120 ng disaccharide or 100 µg dexamethasone phosphate per rat) was “only a moderate reduction in the severity of the AA score”.
